Key:
host microglia = assay: Pharmacological ablation of host microglia in vivo (Iba1 staining); conditions: PLX5622 given to mice via chow for 7 days prior to transplantation
From the text: For pharmacological ablation of host microglia, PLX5622 (Plexxikon Inc.), a drug that inhibits CSF1R, was given to the mice via chow for 7 days prior to transplantation. This treatment kills approximately 90% of host microglia (FIG. 3). PLX5622 is a blood-brain-barrier permeable drug in clinical trials. Two days before transplantation, PLX5622 treatment was stopped to avoid potentially killing donor cells. […]. Thus, with daily injection of tamoxifen, donor microglia outcompete host microglia for repopulation.

[1] = system: cultured human primary microglia; assay: Screening of human microglia for resistance to PLX5622-induced cell death; type: cell-based; conditions: for resistance to PLX5622-mediated cell ablation: mutant CSF1R expressed in cultured human primary microglia via retrovirus infection
From the text: (§1) FIGS. 5A-I show screening of human and mouse microglia for resistance to PLX5622. Human microglia (5A) are normally susceptible to CSF1R antagonist PLX5622-induced cell death (5B). […] Similarly, mouse microglia (5G) are normally susceptible to CSF1R antagonist-induced cell death (5H).
Although dispersion of mouse microglia was achieved using the protocol described in Example 2, continued genetic ablation of host microglia after transplantation of donor microglia cannot likely be used in a clinical setting. Therefore, to achieve dispersion of microglia independent of any genetic manipulations, a novel method to make microglia resistant to ablation by a CSF1R inhibitor such as PLX5622 was developed. Based on the mechanism of action of PLX5622 (antagonizing the critical CSF1R receptor), mutant forms of CSF1R that are constitutively active and potentially convey resistance to PLX5622 were screened (FIG. 5). […] Mutant CSF1Rs were expressed in human donor microglia via retrovirus infection. Such PLX5622-resistant microglia can then be transplanted to hosts in which endogenous microglia are continuously being depleted pharmacologically with PLX5622 post transplantation to allow donor microglia to outcompete residual endogenous microglia for repopulation. We are currently testing resistance of microglia expressing CSFIR^L301S and others to PLX5622 ablation in vivo.

mouse microglia = assay: Screening of mouse microglia for resistance to PLX5622-induced cell death; type: cell-based; conditions: no mutant CSF1R
From the text: as §1

For `COc1ncc(F)cc1CNc1ccc(Cc2c[nH]c3ncc(C)cc23)c(F)n1` [PLX5622, 6-fluoro-N-[(5-fluoro-2-methoxypyridin-3-yl)methyl]-5-[(5-methyl-1H-pyrrolo[2,3-b]pyridin-3-yl)methyl]pyridin-2-amine], the host microglia killed (host microglia) was “approximately 90%”, the “susceptibility to CSF1R antagonist PLX5622-induced cell death” value ([1]; human microglia, no mutant CSF1R) was “susceptible” and the “susceptibility to CSF1R antagonist-induced cell death” value (mouse microglia) was “susceptible”.
For “CSF1R^L301S: constitutively active gain-of-function mutant CSF1R expressed in donor microglia”, the “resistance to PLX5622-mediated cell ablation” value (from here on “resistance”) [1] was “high resistance”.
In the case of “CSR1R^Y571D: constitutively active gain-of-function mutant CSF1R expressed in donor microglia”, the “resistance” value [1] is reported as “high resistance”.
For “CSR1R^Y969F: constitutively active gain-of-function mutant CSF1R expressed in donor microglia”, the “resistance” value [1] was “high resistance”.

Source: US20230165906A1, “COMPOSITIONS AND METHODS FOR USING TRANSPLANTED MICROGLIA AS A VEHICLE FOR WIDESPREAD DELIVERY OF CELLS AND OTHER BIOLOGIC AGENTS TO THE BRAIN” (Albert Einstein College of Medicine, priority 2020, published 2023)
